PubChem BioAssay (NCI)
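Compound exposure: 48 hours, 5 concentrations, 96-well plates. TGI: concentration producing complete growth inhibition.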

Assays:
Assay in all cases: NCI tumour cell line growth inhibition, 48 h
[1] = system: HCT-15 colon
[2] = system: BT-549 breast
[3] = system: T-47D breast
[4] = system: MCF7 breast
[5] = system: MDA-MB-231 breast
[6] = system: HCT-116 colon
[7] = system: PC-3 prostate
[8] = system: SK-MEL-5 melanoma
[9] = system: EKVX NSCLC
[10] = system: SW-620 colon
[11] = system: ACHN renal
[12] = system: OVCAR-4 ovarian
[13] = system: A498 renal
[14] = system: UACC-62 melanoma
[15] = system: SF-295 CNS
[16] = system: KM12 colon
[17] = system: A549 NSCLC
[18] = system: SK-OV-3 ovarian
[19] = system: SK-MEL-28 melanoma
[20] = system: IGROV1 ovarian
[21] = system: UO-31 renal
[22] = system: NCI-H23 lung
[23] = system: OVCAR-8 ovarian
[24] = system: RXF 393 renal
[25] = system: HCC-2998 colon
[26] = system: NCI-H522 lung
[27] = system: MDA-MB-435
[28] = system: UACC-257 melanoma
[29] = system: SN12C renal
[30] = system: SR leukemia
[31] = system: HL-60(TB) leukemia
[32] = system: NCI-H226 lung
[33] = system: 786-0 renal
[34] = system: NCI/ADR-RES ovarian
[35] = system: TK-10 renal
[36] = system: OVCAR-3 ovarian
[37] = system: LOX IMVI melanoma
[38] = system: NCI-H460 lung
[39] = system: HT29 colon
[40] = system: HS 578T breast
[41] = system: SK-MEL-2 melanoma
[42] = system: SF-539 CNS
[43] = system: OVCAR-5 ovarian
[44] = system: CAKI-1 renal
[45] = system: SF-268 CNS
[46] = system: MOLT-4 leukemia
[47] = system: HOP-62 NSCLC
[48] = system: SNB-75 CNS
[49] = system: RPMI-8226 leukemia
[50] = system: COLO 205 colon
[51] = system: CCRF-CEM leukemia
[52] = system: DU-145 prostate
[53] = system: K-562 leukemia
[54] = system: MDA-N
[55] = system: MALME-3M melanoma
[56] = system: HOP-92 NSCLC
[57] = system: SNB-19 CNS
[58] = system: M14 melanoma
[59] = system: U251 CNS
[60] = system: SNB-78 CNS
[61] = system: DLD-1 colon
[62] = system: KM20L2 colon
[63] = system: M19-MEL melanoma
[64] = system: DMS 114 small cell lung
[65] = system: LXFL 529 NSCLC

O=c1c2ccccc2oc2c1ccc1ncccc12
TGI [1]: > 100 µM | TGI [2]: 63 µM | TGI [3]: 31.2 µM | TGI [4]: 27.8 µM | TGI [5]: > 100 µM | TGI [6]: 45.2 µM | TGI [7]: > 100 µM | TGI [8]: 28 µM | TGI [9]: 96.9 µM | TGI [10]: 42 µM | TGI [11]: 23.1 µM | TGI [12]: 46.1 µM | TGI [13]: 25 µM | TGI [14]: 73.6 µM | TGI [15]: 45.9 µM | TGI [16]: > 100 µM | TGI [17]: 22.2 µM | TGI [18]: 34.4 µM | TGI [19]: > 100 µM | TGI [20]: 26.4 µM | TGI [21]: 40.9 µM | TGI [22]: > 100 µM | TGI [23]: > 100 µM | TGI [24]: 44.6 µM | TGI [25]: > 100 µM | TGI [26]: 59.1 µM | TGI [27]: > 100 µM | TGI [28]: 70.6 µM | TGI [29]: > 100 µM | TGI [30]: > 100 µM | TGI [31]: > 100 µM | TGI [32]: 38.9 µM | TGI [33]: 48.9 µM | TGI [34]: 36.3 µM | TGI [35]: 32.6 µM | TGI [36]: 89.6 µM | TGI [37]: 43.8 µM | TGI [38]: 17 µM | TGI [39]: > 100 µM | TGI [40]: 34.8 µM | TGI [41]: > 100 µM | TGI [42]: 53.3 µM | TGI [43]: 16.1 µM | TGI [44]: 34.5 µM | TGI [45]: 78.2 µM | TGI [46]: > 100 µM | TGI [47]: 78.1 µM | TGI [48]: 95.5 µM | TGI [49]: > 100 µM | TGI [50]: 94.4 µM | TGI [51]: > 100 µM | TGI [52]: 59.5 µM | TGI [53]: > 100 µM | TGI [54]: > 100 µM | TGI [55]: 52.2 µM | TGI [56]: 59.3 µM

CC1=NN(c2cccc(Cl)c2)C2(C1)C(Cl)C(=O)N2c1nc2ccccc2s1 (centres undefined)
TGI [1]: > 100 µM | TGI [2]: 85.9 µM | TGI [3]: 97.4 µM | TGI [4]: > 100 µM | TGI [5]: 41.2 µM | TGI [6]: 40.4 µM | TGI [7]: 63.8 µM | TGI [8]: 44.4 µM | TGI [9]: > 100 µM | TGI [57]: > 100 µM | TGI [10]: > 100 µM | TGI [11]: > 100 µM | TGI [12]: > 100 µM | TGI [13]: > 100 µM | TGI [14]: > 100 µM | TGI [15]: 98.1 µM | TGI [16]: > 100 µM | TGI [17]: 76.2 µM | TGI [18]: 69.1 µM | TGI [20]: > 100 µM | TGI [21]: 51.1 µM | TGI [22]: 49.5 µM | TGI [23]: > 100 µM | TGI [24]: 59.1 µM | TGI [25]: > 100 µM | TGI [26]: 56.6 µM | TGI [27]: > 100 µM | TGI [28]: > 100 µM | TGI [29]: 82.3 µM | TGI [30]: 34.3 µM | TGI [31]: 53.4 µM | TGI [32]: 43.4 µM | TGI [33]: 50.6 µM | TGI [34]: 69.7 µM | TGI [35]: > 100 µM | TGI [36]: 66.5 µM | TGI [37]: 34.9 µM | TGI [38]: > 100 µM | TGI [58]: 64.1 µM | TGI [39]: > 100 µM | TGI [40]: > 100 µM | TGI [41]: 38.7 µM | TGI [43]: > 100 µM | TGI [44]: > 100 µM | TGI [45]: > 100 µM | TGI [46]: 38.6 µM | TGI [47]: 64.8 µM | TGI [59]: 72.5 µM | TGI [48]: 67.1 µM | TGI [49]: 41.6 µM | TGI [50]: 31.9 µM | TGI [52]: > 100 µM | TGI [53]: 48.4 µM | TGI [54]: > 100 µM | TGI [55]: > 100 µM | TGI [56]: 75.6 µM

CC(=O)NNc1nc(C)c(C(/C=C/c2ccc(/C=C/C(=N\NC(=O)c3ccncc3)c3sc(NNC(C)=O)nc3C)cc2)=N/NC(=O)c2ccncc2)s1
TGI [1]: > 100 µM | TGI [60]: > 100 µM | TGI [6]: > 100 µM | TGI [8]: > 100 µM | TGI [9]: > 100 µM | TGI [57]: > 100 µM | TGI [10]: > 100 µM | TGI [11]: > 100 µM | TGI [13]: > 100 µM | TGI [14]: > 100 µM | TGI [15]: > 100 µM | TGI [16]: > 100 µM | TGI [61]: > 100 µM | TGI [17]: > 100 µM | TGI [18]: > 100 µM | TGI [62]: > 100 µM | TGI [19]: > 100 µM | TGI [20]: > 100 µM | TGI [21]: > 100 µM | TGI [22]: > 100 µM | TGI [23]: > 100 µM | TGI [24]: > 100 µM | TGI [25]: > 100 µM | TGI [28]: > 100 µM | TGI [29]: > 100 µM | TGI [31]: > 100 µM | TGI [32]: > 100 µM | TGI [33]: > 100 µM | TGI [35]: > 100 µM | TGI [36]: > 100 µM | TGI [37]: > 100 µM | TGI [38]: > 100 µM | TGI [58]: > 100 µM | TGI [39]: > 100 µM | TGI [63]: > 100 µM | TGI [41]: > 100 µM | TGI [42]: > 100 µM | TGI [43]: > 100 µM | TGI [44]: > 100 µM | TGI [45]: > 100 µM | TGI [46]: > 100 µM | TGI [47]: > 100 µM | TGI [59]: > 100 µM | TGI [48]: > 100 µM | TGI [49]: > 100 µM | TGI [50]: > 100 µM | TGI [51]: > 100 µM | TGI [53]: > 100 µM | TGI [64]: > 100 µM | TGI [65]: > 100 µM | TGI [55]: > 100 µM | TGI [56]: > 100 µM
